Source: patent publication US20170189547A1, “Biodegradable Drug Delivery Composition” (Durect Corporation, priority 2010, published 2017)

Molecular target: T1, hGH (Homo sapiens, UniProt P01241)
T1 construct: purchased Hospira, Adelaide
Assay: Complexation capability of hGH with anionic and cationic agents (non-complexed hGH in supernatant by RPLC)
Format: physicochemical
Settings: for Observation: hGH with complexing agent; for Supernatant Analysis (% of hGH): non-complexed hGH by RPLC
Procedure: Additional complexation agents were tested in vitro for their ability to precipitate rhGH.
Human growth hormone (purchased from Hospira, Adelaide) was complexed with poly lysine, poly arginine, poly adenylic acid (poly-A), or poly thymine (poly-T) in appropriate ratios (as specified in Table 28) to form suspensions. Supernatant was separated from precipitate (ppt) by centrifugation of the complexed material suspensions. The supernatant solution was analyzed for non-complexed hGH by reverse phase liquid chromatography (RPLC).

T1 sequence (P01241 27-217): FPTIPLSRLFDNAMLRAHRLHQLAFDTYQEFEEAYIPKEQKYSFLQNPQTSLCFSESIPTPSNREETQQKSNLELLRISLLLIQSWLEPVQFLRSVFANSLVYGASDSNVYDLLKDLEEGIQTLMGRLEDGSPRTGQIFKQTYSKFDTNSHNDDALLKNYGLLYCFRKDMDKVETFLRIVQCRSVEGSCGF

Poly-Lysine was tested, and the Observation (concentration ratio 1:10) was “Cloudy ppt” and the “Supernatant Analysis (% of hGH)” value (concentration ratio 1:10) was 9.5 % of hGH.
For Hyaluronic Acid, the Observation (concentration ratio 1:2) was “No ppt” and the “Supernatant Analysis (% of hGH)” value (concentration ratio 1:2) was >90 % of hGH.
